Where “and” joins values, the source holds several entries; their conditions need not be identical. Equal entries are not always repeated. Entries after “also recorded” stand apart in the source; their conditions may differ.
What was measured:
[1] = LogP measurement in solutions; type: physicochemical; conditions: octanol / octanol-saturated water
Source text: incompatibility between particles i and j. Considering the relative position and chemical components of all the beads, we always keep aAB = aAC = 28, aAS = aCS = 25, and aBS = 35. The concentration of ABC or AB is fixed at 0.03. We performed the dynamics of total 81 000 DPD beads in a cubic box (303) under the periodic boundary conditions.
In these conditions, we carry out 1.0 × 106 steps for each simulation.
Molecular simulation using the Materials Studio program. For each molecule, the most favourable crystal packing was predicted using the Polymorph module as implemented in Materials Studio. The crystal structure prediction protocol includes three parts, Packing, Geometry Optimization and Clustering. […]
Evaluation of the dephosphorylated efficacy of P-CyPt towards ALP. […] The resulting fluorescence intensities in each well in the first 30 minutes were recorded on a Spark™ 10M Multimode Microplate Reader (λex/em = 680/710 nm), and every two-minute intervals record one point. The amount of CyPt at each time point was determined by a standard curve under the same […]
LogP measurement in solutions. […] The UV-vis absorption spectroscopy or fluorescence spectrum was recorded after being diluted in MeOH/H2O (1:1) system (<1% octanol). The logP value was calculated by dividing the amount in the octanol layer to […]

[2] = Body weight of mice with orthotopic HepG2/Luc liver tumors; type: in vivo; conditions: individual samples, in g (unit assumed)
[3] = system: s.c. HeLa tumors; assay: Chemotherapy of s.c. HeLa tumors in vivo; set-up: species or system mice; conditions: for tumor volume growth on day 21: s.c. HeLa, 2.25 mg kg^−1 Pt i.v. on day 0, 3, 6, 9, 12
Description: Sixteen mice with s.c. […] Each experiment was conducted in four mice.

[4] = system: supercoiled pBR322 plasmid DNA; assay: Ability to break DNA double strand (agarose gel electrophoresis); type: biochemical; conditions: 100 μM, 37 °C, 16 h
Description: Evaluation of the ability to break DNA double strand
by different species of Pt compounds. (a) Agarose gel electrophoresis of supercoiled
pBR322 plasmid DNA (10 ng/μL) after incubating with indicated conditions.
represents the linear DNA marker ladder (500-12000 bp); Lane i: DNA; Lane ii: DNA
+ GSH (2 mM); Lane iii: DNA + CDDP (100 μM); Lane iv: DNA + CDDP (100 μM)
+ GSH (2 mM); Lane v: DNA + P-CyPt (100 μM); Lane vi: DNA + P-CyPt (100 μM)
+ GSH (2 mM), Lane vii: DNA +P-CyPt (100 μM) + ALP (500 U/L), Lane viii: DNA
+P-CyPt (100 μM) + ALP (500 U/L) +GSH (2 mM); (b) Agarose gel electrophoresis
of supercoiled pBR322 plasmid DNA (20 ng/μL) after incubating with varying
concentrations of P-CyPt (0, 1, 2, 5, 10, 20, 50 and 100 μM) respectively) plus ALP
(500 U/L), followed by incubation with GSH (2 mM) in Tris buffer at 37 °C for 16 h.
One representative experiment out of two is shown.

[5] = Blood analysis in healthy mice (blood count, biochemistry); type: in vivo; set-up: BUN / CRE / WBC / HGB / HCT / MCH / MCHC / MCV / RBC / ALT / AST / TP / T-Bil / Alb: unit not given here; conditions: for ALT / AST / Alb / BUN / CRE / HCT / MCH / MCHC / MCV / PLT / RBC / T-Bil / TP / WBC: Supplementary Fig. 36
[6] = Side toxicity in s.c. HeLa tumor-bearing mice (body weight, BUN, CRE, H&E); conditions: for body weight during treatment: 2.25 mg kg^−1 Pt i.v. x5, 21 days; for increase of blood urea nitrogen (BUN) level / increase of creatinine (CRE) level: day 21
[7] = system: orthotopic HepG2/Luc liver tumors; assay: Chemotherapy of orthotopic liver tumors (BL imaging, ex vivo BL and FL imaging);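 for tumor BL intensity of liver: bioluminescence quantified by ROI over liver region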; type: in vivo, mice; conditions: for tumor BL over the course of treatment: 2.25 mg kg^−1 Pt i.v. on day 0, 3, 6, 9, 12; for tumor BL intensity of liver: day 15; for Normalized FL intensity of mCy (ex vivo liver tumor, Fig. 5h): day 15, livers sprayed with P-CyPt 10 μM, normalized to PBS group; for Normalized BL intensity (ex vivo liver tumor, Fig. 5h): day 15, normalized to PBS group
Description: During the treatment, the body weights of mice were also measured every three days. On day 15, all mice were sacrificed, the whole liver were excised and photographed. Then, P-CyPt (10 μM) and D-luciferin (5 mM) were sprayed on the surface of each liver to performed ex vivo BL and NIR FL imaging. The BL images were acquired at 10 min using the BL imaging mode (Open), and the NIR FL images were acquired at 30 min, using a 660 nm excitation filter and a 750 ± 50 nm emission filter. The average BL and FL intensities were quantified by the ROIs measurement in the tumor region of liver using the Living Image Software (4.5.2, PerkinElmer, MA, U.S.A). Each experiment was conducted in four mice.

[8] = Supplementary Fig. 36, first HGB block, individual mice
[9] = Supplementary Fig. 36, first HGB block, mean of 3 mice

CC1(C)C(/C=C/C2=C3Oc4cc(O)c(Cl)cc4C=C3CCC2)=[N+](CCCNC(=O)[C@@H](Cc2ccccc2)NC(=O)[C@@H](Cc2ccccc2)NC(=O)CCC(=O)[O][Pt]([NH2])([NH2])([OH])([Cl])[Cl])c2ccccc21 [CyPt]
LogP value [1]: 2.50 ± 0.03

CC1(C)C(/C=C/C2=C3Oc4cc(OP(=O)(O)O)c(Cl)cc4C=C3CCC2)=[N+](CCCNC(=O)[C@@H](Cc2ccccc2)NC(=O)[C@@H](Cc2ccccc2)NC(=O)CCC(=O)[O][Pt]([NH2])([NH2])([OH])([Cl])[Cl])c2ccccc21 [P-CyPt]
Body weight of mice (Supplementary Fig. 34) ([2]; time 0 d): 18.59 and 19.8 and 19.81 | Body weight of mice (Supplementary Fig. 34) ([2]; time 3 d): 18.83 and 19.54 and 20.74 | Body weight of mice (Supplementary Fig. 34) ([2]; time 6 d): 17.51 and 20.1 and 20.66 | Body weight of mice (Supplementary Fig. 34) ([2]; time 9 d): 18.1 and 20.43 and 20.94 | Body weight of mice (Supplementary Fig. 34) ([2]; time 12 d): 19.14 and 19.19 and 21.74 | Body weight of mice (Supplementary Fig. 34) ([2]; time 15 d): 19.31 and 19.45 and 21.01 | average tumor weight at end of treatment ([3]; day 21): significantly smaller than the other three groups | tumor volume growth on day 21 [3]: no apparent tumor growth | LogP value [1]: 0.68 ± 0.03 | effect on supercoiled pBR322 DNA ([4]; plus GSH (2 mM)): can significantly relax the supercoiled DNA | effect on supercoiled pBR322 DNA ([4]; without GSH): cannot bind to and break the DNA double strand | HGB [5, 8]: 124 and 128 and 97 | HGB [5, 9]: 116.333 | HGB ([5]; Supplementary Fig. 36, second HGB block (between AST and TP), mean of 3 mice): 3.426 | ALT ([5]; individual mice): 64.638 and 69.471 and 57.14 | AST ([5]; individual mice): 93.668 and 95.637 and 124.668 | Alb ([5]; individual mice): 28.06 and 34.76 and 32.73 | BUN ([5]; individual mice): 22.456 and 18.592 and 16.632 | CRE ([5]; individual mice): 23.568 and 18.005 and 14.662 | HCT ([5]; individual mice): 42 and 36 and 35.3 | MCH ([5]; individual mice): 18.3 and 18.9 and 16.6 | MCHC ([5]; individual mice): 315 and 345 and 304 | MCV ([5]; individual mice): 50.3 and 49.6 and 53.5 | PLT ([5]; individual mice): 463 and 494 and 673 | RBC ([5]; individual mice): 7.22 and 7.49 and 6.74 | T-Bil ([5]; individual mice): 20.416 and 17.788 and 25.91 | TP ([5]; individual mice): 41.72 and 48.65 and 44.25 | WBC ([5]; individual mice): 2.3 and 2.6 and 1.5 | ALT ([5]; mean of 3 mice): 63.750 | AST ([5]; mean of 3 mice): 104.658 | Alb ([5]; mean of 3 mice): 31.850 | BUN ([5]; mean of 3 mice): 19.227 | CRE ([5]; mean of 3 mice): 18.745 | HCT ([5]; mean of 3 mice): 37.767 | MCH ([5]; mean of 3 mice): 17.933 | MCHC ([5]; mean of 3 mice): 321.333 | MCV ([5]; mean of 3 mice): 51.133 | PLT ([5]; mean of 3 mice): 543.333 | RBC ([5]; mean of 3 mice): 7.150 | T-Bil ([5]; mean of 3 mice): 21.371 | TP ([5]; mean of 3 mice): 44.873 | WBC ([5]; mean of 3 mice): 2.133 | blood count and biochemistry values ([5]; healthy nude mice, 1 day post i.v. 2.25 mg kg-1 Pt): all the values were within the normal reference | body weight during treatment [6]: similar | increase of blood urea nitrogen (BUN) level [6]: not obviously upregulated | increase of creatinine (CRE) level [6]: not obviously upregulated | H&E staining of major organs (side toxicity) ([6]; day 21 after 5 doses of 2.25 mg kg^−1 Pt): all organs looked normal; also recorded: no apparent cell death | tumor BL over the course of treatment [7]: did not obviously increase | tumor BL intensity of liver [7]: 9376.5 | metastatic tumor foci in the livers ([7]; day 15, ex vivo BL imaging): No metastatic tumor foci | Normalized FL intensity of mCy (ex vivo liver tumor, Fig. 5h) [7]: 0.23 | Normalized BL intensity (ex vivo liver tumor, Fig. 5h) [7]: 0.22

[NH2][Pt]([NH2])([Cl])[Cl] [CDDP, cisplatin]
Body weight of mice (Supplementary Fig. 34) ([2]; time 0 d): 19.83 and 20.11 and 22.01 | Body weight of mice (Supplementary Fig. 34) ([2]; time 3 d): 18.72 and 20.66 and 21.22 | Body weight of mice (Supplementary Fig. 34) ([2]; time 6 d): 17.7 and 19.43 and 21.14 | Body weight of mice (Supplementary Fig. 34) ([2]; time 9 d): 17.17 and 18.45 and 20.33 | Body weight of mice (Supplementary Fig. 34) ([2]; time 12 d): 16.32 and 17.76 and 19.54 | Body weight of mice (Supplementary Fig. 34) ([2]; time 15 d): 16.24 and 17.17 and 19.09 | tumor volume growth on day 21 [3]: ~ 15.8 fold | effect on supercoiled pBR322 DNA ([4]; plus GSH (2 mM)): prevent its binding with the DNA double strand | effect on supercoiled pBR322 DNA ([4]; without GSH): cannot obviously relax or break | HGB [5, 8]: 90 (2×) and 67 | HGB [5, 9]: 82.333 | ALT ([5]; individual mice): 45.502 and 43.964 and 66.025 | AST ([5]; individual mice): 126.05 and 97.802 and 100.507 | Alb ([5]; individual mice): 26.65 and 25.18 and 35.22 | BUN ([5]; individual mice): 18.956 and 37.908 and 23.94 | CRE ([5]; individual mice): 19.831 and 68.509 and 25.561 | HCT ([5]; individual mice): 35.4 and 40.2 and 41.2 | MCH ([5]; individual mice): 16.6 and 15.9 and 18.6 | MCHC ([5]; individual mice): 350 and 331 and 324 | MCV ([5]; individual mice): 51.5 and 49.5 and 51.3 | PLT ([5]; individual mice): 591 and 289 and 329 | RBC ([5]; individual mice): 7.14 and 6.54 and 6.58 | T-Bil ([5]; individual mice): 21.47 and 18.852 and 18.358 | TP ([5]; individual mice): 42.81 and 40.21 and 50.47 | WBC ([5]; individual mice): 1.9 and 1.2 and 1.6 | ALT ([5]; mean of 3 mice): 51.830 | AST ([5]; mean of 3 mice): 108.120 | Alb ([5]; mean of 3 mice): 29.017 | BUN ([5]; mean of 3 mice): 26.935 | CRE ([5]; mean of 3 mice): 37.967 | HCT ([5]; mean of 3 mice): 38.933 | MCH ([5]; mean of 3 mice): 17.033 | MCHC ([5]; mean of 3 mice): 335.000 | MCV ([5]; mean of 3 mice): 50.767 | PLT ([5]; mean of 3 mice): 403.000 | RBC ([5]; mean of 3 mice): 6.753 | T-Bil ([5]; mean of 3 mice): 19.560 | TP ([5]; mean of 3 mice): 44.497 | WBC ([5]; mean of 3 mice): 1.567 | body weight during treatment [6]: obviously decreased | increase of blood urea nitrogen (BUN) level [6]: ~ 1.6 fold | increase of creatinine (CRE) level [6]: ~ 1.4 fold | tumor BL over the course of treatment [7]: markedly increased | tumor BL intensity of liver [7]: 861747.5 | Normalized FL intensity of mCy (ex vivo liver tumor, Fig. 5h) [7]: 0.90 | Normalized BL intensity (ex vivo liver tumor, Fig. 5h) [7]: 0.87
